Publication PMC10708125, “Antidiabetic Activity, Molecular Docking, and ADMET Properties of Compounds Isolated from Bioactive Ethyl Acetate Fraction of Ficus lutea Leaf Extract” (Molecules, 2023)
Where two headings read alike, the source gives them in different places.

Key:
[1] = biological target: T1, rat intestinal α-glucosidase (Rattus norvegicus, UniProt P23739); assay: α-Glucosidase inhibition assay; type: biochemical
T1 construct: rat intestinal α-glucosidase solution; from tissue; host or cells: rat intestine
T1 sequence (P23739 whole entry): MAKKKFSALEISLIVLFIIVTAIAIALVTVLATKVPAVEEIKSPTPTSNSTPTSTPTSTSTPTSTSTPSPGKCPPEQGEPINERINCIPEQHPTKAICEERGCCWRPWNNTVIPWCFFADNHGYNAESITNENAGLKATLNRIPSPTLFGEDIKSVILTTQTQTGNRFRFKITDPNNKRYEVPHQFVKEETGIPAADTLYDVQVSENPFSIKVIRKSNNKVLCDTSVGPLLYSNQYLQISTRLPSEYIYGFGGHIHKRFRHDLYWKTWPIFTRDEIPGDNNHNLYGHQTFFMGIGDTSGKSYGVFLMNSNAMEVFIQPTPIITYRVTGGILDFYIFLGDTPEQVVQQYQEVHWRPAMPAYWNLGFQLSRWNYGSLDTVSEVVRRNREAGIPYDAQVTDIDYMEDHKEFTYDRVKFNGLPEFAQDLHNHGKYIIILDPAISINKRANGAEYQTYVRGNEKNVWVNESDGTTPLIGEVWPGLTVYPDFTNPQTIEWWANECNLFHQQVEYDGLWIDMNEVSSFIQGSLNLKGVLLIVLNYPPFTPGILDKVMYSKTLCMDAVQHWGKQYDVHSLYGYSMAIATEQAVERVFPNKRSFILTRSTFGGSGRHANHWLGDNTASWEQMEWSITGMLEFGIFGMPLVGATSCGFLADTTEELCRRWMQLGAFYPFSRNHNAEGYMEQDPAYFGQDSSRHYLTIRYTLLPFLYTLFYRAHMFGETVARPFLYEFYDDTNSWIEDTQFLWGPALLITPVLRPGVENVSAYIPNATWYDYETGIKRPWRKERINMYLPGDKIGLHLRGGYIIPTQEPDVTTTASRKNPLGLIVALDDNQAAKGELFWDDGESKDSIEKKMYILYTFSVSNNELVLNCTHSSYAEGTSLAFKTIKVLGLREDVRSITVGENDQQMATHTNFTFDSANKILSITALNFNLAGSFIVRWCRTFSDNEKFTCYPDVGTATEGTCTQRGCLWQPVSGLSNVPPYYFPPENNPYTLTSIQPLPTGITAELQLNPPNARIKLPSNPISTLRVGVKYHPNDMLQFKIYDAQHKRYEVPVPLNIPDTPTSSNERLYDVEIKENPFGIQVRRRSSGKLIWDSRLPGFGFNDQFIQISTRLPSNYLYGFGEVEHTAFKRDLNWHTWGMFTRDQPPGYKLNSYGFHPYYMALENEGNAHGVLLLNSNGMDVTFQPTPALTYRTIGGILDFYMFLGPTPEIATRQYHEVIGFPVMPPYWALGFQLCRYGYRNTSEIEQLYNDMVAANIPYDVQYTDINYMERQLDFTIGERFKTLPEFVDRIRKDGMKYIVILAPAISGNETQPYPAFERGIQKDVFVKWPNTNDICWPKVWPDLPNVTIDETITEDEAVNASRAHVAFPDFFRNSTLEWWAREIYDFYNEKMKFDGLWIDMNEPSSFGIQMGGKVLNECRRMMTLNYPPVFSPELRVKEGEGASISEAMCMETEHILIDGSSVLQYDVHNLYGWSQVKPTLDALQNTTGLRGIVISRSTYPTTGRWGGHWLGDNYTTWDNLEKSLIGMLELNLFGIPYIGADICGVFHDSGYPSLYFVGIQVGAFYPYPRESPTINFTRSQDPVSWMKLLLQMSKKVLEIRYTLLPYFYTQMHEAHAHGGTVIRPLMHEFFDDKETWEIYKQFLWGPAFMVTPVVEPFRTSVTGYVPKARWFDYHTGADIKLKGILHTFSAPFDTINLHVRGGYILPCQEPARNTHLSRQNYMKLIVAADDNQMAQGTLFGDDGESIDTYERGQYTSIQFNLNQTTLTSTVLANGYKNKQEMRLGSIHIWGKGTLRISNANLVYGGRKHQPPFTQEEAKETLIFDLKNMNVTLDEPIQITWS
Description: The effect of the isolated compounds on the activity of the α-glucosidase enzyme was evaluated by the method of Olaokun et al.. Firstly, a solution of 2.5 mg of compound in 1 mL of 50% dimethyl sulfoxide was made. A compound solution (100 μL) and sucrose (200 μL of a 56 mM solution) in 0.1 M PO4 buffer (pH 7) were incubated at 37 °C for 5 min. Then 200 μL of rat intestinal α-glucosidase solution was added with vigorous shaking before incubation for 20 min. Thereafter, 750 μL of 2 M Tris-HCl buffer (pH 6.9) was added to the mixture. […] The quantity of glucose released was estimated using the glucose oxidase method, with absorbance recorded at 540 nm. […] (1) %Inhibition=100×∆AControl−∆ASample/∆AControl∆AControl=ATest−ABlank∆ASample=ATest−ABlank

[2] = test system: H-4-11-E rat liver cells; assay: Glucose utilization in H-4-11-E liver cells; type: cell-based; settings: 250 µg/mL, 3 h, percentage of untreated control cells ± SEM
Description: (§1) The potential of compounds to stimulate cells to utilize glucose was estimated using the method adopted by Olaokun et al.. […] The C2C12 cells were incubated for 4 days, while the H-4-11-E cells were incubated for 2 days at 37 °C in a 5% CO2 incubator. Thereafter, the cells were examined and utilized for the glucose uptake assay. […] The treated cells were incubated for 1 h (C2C12) and 3 h (H-4-11-E). The positive control was insulin (Sigma) (1 μM) for C2C12 cells and metformin (Sigma) (1 µM) for H-4-11-E cells. Thereafter, the amount of glucose in the medium was evaluated using the glucose oxidase method, with absorbance recorded at 540 nm. The percentage of glucose utilized was calculated as the percentage change in absorbance in comparison to the untreated cells using Equation (2). (2) %Glucose utilized=100×∆AControl (untreated cells)−∆ASample (treated cells)/∆AControl (untreated cells)

[3] = test system: C2C12 muscle cells; assay: Glucose utilization in C2C12 muscle cells; type: cell-based; settings: 250 µg/mL, 1 h, percentage of untreated control cells ± SEM
Description: as §1

[4] = rat intestinal α-glucosidase, sucrose substrate, mean ± SEM, read-out: IC50, α-glucosidase inhibitory activity (converted)

SMILES | IC50 [1, 4] | IC50 [1] | Glucose utilization in H-4-11-E liver cells [2] | Glucose utilization in C2C12 muscle cells [3]
CC(=O)OC1CCC2(C)C(CCC3(C)C2CC=C2C4C(C)C(C)CCC4(C)CCC23C)C1(C)C (stereo not drawn) [α-Amyrin acetate, α-amyrin acetate] | 716 µM | – | – | –
CC[C@H](/C=C/[C@@H](C)[C@H]1CC[C@H]2[C@@H]3CC=C4C[C@@H](O)CC[C@]4(C)[C@H]3CC[C@]12C)C(C)C [Stigmasterol, stigmasterol] | 280 µM | – | – | –
C=C(C)[C@@H]1CC[C@]2(C)CC[C@]3(C)[C@H](CC[C@@H]4[C@@]5(C)CC[C@H](O)C(C)(C)[C@@H]5CC[C@]43C)[C@@H]12 [Lupeol, lupeol] | – | > 2340 µM | – | –
Oc1cc(O)c2c(c1)O[C@H](c1ccc(O)c(O)c1)[C@H](O)C2 [Epicatechin, epicatechin] | 19.7 µM | – | 32.4 ± 1.5% | –
Oc1ccc(C2Oc3cc(O)cc(O)c3CC2O)cc1 (centres unmarked) [Epiafzelechin, epiafzelechin] | 27.9 µM | – | 46.7 ± 1.2% | 33.35 ± 1.8%
